Experimental data as given in patent US10080764B2, “Topical minocycline compositions and methods of using the same” (Laboratory Skin Care, Inc., priority 2011, dated 2018).

Tests used:
Assay type in all cases: physicochemical
[1] = Binding of minocycline HCl to Hydroxysomes and release (pH dependence); settings: for pH at which minocycline attaches (binds) to Hydroxysomes: binding suspension in water, shaken 30 min, monohydrochloride
Protocol: Hydroxysomes® (calcium phosphate particles, Laboratory Skin Care, San Carlos, Calif.) were suspended in water. […] The final pH of the suspension was adjusted to 6.2 to 8.0 with add. The binding suspension was mixed by shaking for 30 min. The binding suspensions were centrifuged at 10,000 rpm for 10 min in the bench top microcentrifuge. The supernatants were analyzed with the Shimadzu spectrophotometer to quantify the free minocycline. The bound minocycline was calculated by subtracting the amount of the minocycline detected in the supernatant, from the total initial amount in the binding suspension. The total initial minocycline absorbance at the binding pH was calculated from the linearity equation of the standard plot. • Controls: Minocycline solution at the same pH with the same concentration as in the binding mixture. D. Example Formulation

[2] = Minocycline stability in water, 6 days at room temperature, HPLC of supernatant; settings: capped glass vial
Excerpt: The vials were then centrifuged and the supernatant analyzed by HPLC.

[3] = Fluorescence of bulk powders under white and UV black light; settings: 25 mg MNC/g Hydroxysomes

## CN(C)c1ccc(O)c2c1C[C@H]1C[C@H]3[C@H](N(C)C)C(O)=C(C(N)=O)C(=O)[C@@]3(O)C(O)=C1C2=O.Cl [Minocycline HCl, 4,7-Bis(dimethylamino) 1,4,4a,5,5a,6,11,12a-octahydro-3,10,12,12a-tetrahydroxy-1,11-dioxo-2-naphthacenecarboxamide monohydrochloride]
[1]
  pH at which minocycline associated with Hydroxysomes is unstable (releases): acidic pH
  pH at which minocycline attaches (binds) to Hydroxysomes: neutral or alkaline pH
[1]; listed as Minocycline
  pH at which minocycline attaches (binds) to Hydroxysomes: 6.2-8.0
[2]
  degradation by HPLC analysis of supernatant: substantial degradation
  visible discoloration of vial: visibly discolored
[3]
  fluorescence of bulk powder under black light: Intense yellow-orange fluorescence
